Values quoted from earlier work, collected in patent publication US11433096B2, “Ophthalmic formulation and methods of use” (priority 2020, dated 2022).

Assays:
opacities = conditions: in vivo
[1] = tested on: diabetes-induced cataract; conditions: diabetic rats

**Q.** Which “opacities progression and opacity score” value (opacities) does the source give for `O=S(=O)([O-])[O-].[Zn+2]` [Zinc Sulfate] here?
**A.** retard opacities progression and lowering the opacity score

**Q.** For `[Zn]` [zinc], which “cross-linked glycation, expression of the receptor of glycated products and oxidative stress indicators in the eye lens” value ([1]; supplemental zinc) is on record?
**A.** alleviated

**Q.** And the “progression and maturation of diabetes-induced cataract” value ([1]; supplemental zinc)?
**A.** alleviated

**Q.** And the “reduced content of total and imbalanced proportion of soluble proteins in the lens” value ([1]; supplemental zinc)?
**A.** effective in preventing

**Q.** What about the “concentration of heat shock protein in the eye lens, specifically α-crystallin” value ([1]; zinc supplementation) of the same compound?
**A.** induced

**Q.** And the “elevated activity and expression of polyol pathway enzymes and molecules in the lens” value ([1]; zinc supplementation)?
**A.** counteracted
